Source: patent publication US5114920A, “BU-3292T antibiotics” (priority 1988, dated 1992)
≈ marks a conversion by molar mass, not a printed value. Starred links: 1 amine or outer side, 2 acyl side, 3 side chain; linkers in the order of their positions; H or OH if unused. Positions of bridges follow the written chain, without caps; N, C: chain ends. Non-standard residues stand in square brackets, D forms with d. Residues, ends and D or L forms follow the SMILES beside them. Chains are numbered I, II in the order given. Actinocin(9to1) = Cc1c2oc3c(C)ccc(C(=O)[*:1])c3nc-2c(C(=O)[*:2])c(N)c1=O; NMeV = CN[C@H](C(=O)O)C(C)C; Sar = CNCC(=O)O

Assays:
[1] = test system: DNA synthesis in L1210 leukemia cells; test: Inhibition of macromolecule synthesis, 3H-thymidine incorporation; assay type: cell-based, murine
Description: BU-3292T components A and B were tested for in vitro cytotoxicity against murine and human tumor cells and for in vivo antitumor activity in mice. Actinomycin D was used as a reference compound in both in vitro and in vivo experiments. B16-F10 (murine melanoma) and Moser (human colorectal carcinoma) cells were grown to the logarithmic phase in enriched Eagle minimum essential medium (MEM) supplemented with fetal calf serum (FCS, 10%) and kanamycin (60 mcg/ml), harvested and inoculated into wells of a 96-well microtiter plate with test materials at the concentrations of 3.0×10^4 and 6.0×10^4 cells/ml, respectively. They were incubated at 37° C. in humidified atmosphere of 5% CO2 and 95% air for 72 hours. The cytotoxic activity was determined colorimetrically at 540 nm after staining viable cells with neutral red. […] Inhibitory effects of BU-3292T component A on macromolecule (DNA, RNA and protein) synthesis were determined in vitro. […] After washing with chilled 5% trichloroacetic acid solution, the radioactivity incorporated into the acid-insoluble fraction of the tumor cells was determined in a liquid scintillation counter. […]

[2] = test system: lymphocytic leukemia P388; test: Antitumor activity against P388 leukemia (ip); assay type: in vivo, mice; conditions: QD × 3, ip
Description: (§1) BU-3292T components A and B were tested for in vitro cytotoxicity against murine and human tumor cells and for in vivo antitumor activity in mice. Actinomycin D was used as a reference compound in both in vitro and in vivo experiments. B16-F10 (murine melanoma) and Moser (human colorectal carcinoma) cells were grown to the logarithmic phase in enriched Eagle minimum essential medium (MEM) supplemented with fetal calf serum (FCS, 10%) and kanamycin (60 mcg/ml), harvested and inoculated into wells of a 96-well microtiter plate with test materials at the concentrations of 3.0×10^4 and 6.0×10^4 cells/ml, respectively. They were incubated at 37° C. in humidified atmosphere of 5% CO2 and 95% air for 72 hours. The cytotoxic activity was determined colorimetrically at 540 nm after staining viable cells with neutral red. […] Inhibitory effects of BU-3292T component A on macromolecule (DNA, RNA and protein) synthesis were determined in vitro. Cultured L1210 murine leukemia cells (5×10^5 cells/ml) were incubated with test materials at 37° C. for 15 minutes and then further incubated for 60 minutes after the addition of labelled precursor, ^3 H-thymidine, ^14 C-uridine or ^3 H-leucine, into the cultured mixtures. After washing with chilled 5% trichloroacetic acid solution, the radioactivity incorporated into the acid-insoluble fraction of the tumor cells was determined in a liquid scintillation counter. […] In vivo antitumor activities of BU-3292T components A and B were tested in tumor-bearing female CDF mice. After the intraperitoneal implantation of diluted ascitic fluid with 1.0 ×10^6 lymphocytic leukemia P388 cells into the mice, test compounds were administered intraperitoneally once a day on days 1, 2 and 3 (QD×3).

[3] = test system: Moser (human colorectal carcinoma) cells; test: In vitro cytotoxicity, neutral red staining; assay type: cell-based; conditions: 72 hours
Description: as §1

[4] = test system: B16-F10 (murine melanoma) cells; test: In vitro cytotoxicity, neutral red staining; assay type: cell-based; conditions: B16-F10; 72 hours
Description: as §1

[5] = test system: RNA synthesis in L1210 leukemia cells; test: Inhibition of macromolecule synthesis, 14C-uridine incorporation; assay type: cell-based, murine; conditions: L1210 leukemia cells; 14C-uridine
Description: as §1

[6] = Body weight change in P388-bearing mice; conditions: QD × 3, ip
Description: as §1

[7] = test system: Cryptococcus neoformans IAM 4519; test: Antimicrobial activity, serial two-fold agar dilution method; assay type: cell-based; conditions: Sabouraud dextrose agar
Description: (§2) The antimicrobial activity of BU-3292T A and B was determined against aerobic and anaerobic bacteria and fungi by a serial two-fold agar dilution method. BU-3292T A and B are active against aerobic gram-positive bacteria, and weakly active against anaerobic gram-negative bacteria and fungi.

[8] = test system: Pseudomonas aeruginosa A9930; test: as above; assay type: cell-based; conditions: Nutrient agar
Description: as §2

[9] = test system: Clostridium difficile A21675; test: as above; assay type: cell-based; conditions: GAM agar
Description: as §2

[10] = test system: Staphylococcus epidermidis D153; test: as above; assay type: cell-based; conditions: Nutrient agar
Description: as §2

[11] = test system: Aspergillus fumigatus IAM 2530; test: as above; assay type: cell-based; conditions: Sabouraud dextrose agar
Description: as §2

[12] = test system: Staphylococcus aureus smith; test: as above; assay type: cell-based; conditions: Nutrient agar
Description: as §2

[13] = test system: Streptococcus pyogenes A20201; test: as above; assay type: cell-based; conditions: Nutrient agar
Description: as §2

Proteus vulgalis A9436 = test: as above; assay type: cell-based; conditions: Nutrient agar
Description: as §2

Micrococcus luteus 1001 = test: as above; assay type: cell-based; conditions: Nutrient agar
Description: as §2

Mucor spinosus IFO 5317 = test: as above; assay type: cell-based
Description: as §2

Escherichia coli NIHJ = test: as above; assay type: cell-based; conditions: Nutrient agar
Description: as §2

[14] = test system: Propionibacterium anaerobius A21905; test: as above; assay type: cell-based; conditions: GAM agar
Description: as §2

[15] = test system: Streptococcus faecalis A9612; test: as above; assay type: cell-based; conditions: Nutrient agar
Description: as §2

[16] = test system: Candida albicans IAM 4888; test: as above; assay type: cell-based; conditions: Sabouraud dextrose agar
Description: as §2

[17] = test system: Trichophyton mentagrophytes D155; test: as above; assay type: cell-based; conditions: Sabouraud dextrose agar
Description: as §2

[18] = test system: Bacteroides fragilis A22693; test: as above; assay type: cell-based; conditions: GAM agar
Description: as §2

[19] = test system: Klebsiella pneumoniae D11; test: as above; assay type: cell-based; conditions: Nutrient agar
Description: as §2

[20] = test system: Bacillus subtilis PCI-219; test: as above; assay type: cell-based; conditions: Nutrient agar
Description: as §2

[21] = test system: Fusarium moniliforme A2284; test: as above; assay type: cell-based; conditions: Sabouraud dextrose agar
Description: as §2

Proteus mirabilis A9554 = test: as above; assay type: cell-based; conditions: Nutrient agar
Description: as §2

[22] = test system: Staphylococcus aureus 209P; test: as above; assay type: cell-based; conditions: Nutrient agar
Description: as §2

[23] = test system: Propionibacterium acnes A21933; test: as above; assay type: cell-based; conditions: GAM agar
Description: as §2

[24] = test system: Protein synthesis in L1210 leukemia cells; test: Inhibition of macromolecule synthesis, 3H-leucine incorporation; assay type: cell-based, murine; conditions: L1210 leukemia cells; 3H-leucine
Description: as §1

[25] = test system: Clostridium perfringens A9635; assay type: cell-based; conditions: GAM agar

Structure (SMILES): Cc1c2oc3c(C)ccc(C(=O)N[C@@H]4C(=O)N[C@H](C(C)C)C(=O)N5CCC[C@H]5C(=O)N(C)CC(=O)N(C)[C@@H](C(C)C)C(=O)O[C@@H]4C)c3nc-2c(C(=O)N[C@@H]2C(=O)N[C@H](C(C)C)C(=O)N3CCC[C@H]3C(=O)N(C)CC(=O)N(C)[C@@H](C(C)C)C(=O)O[C@@H]2C)c(N)c1=O [Actinomycin D, reference compound] (I: T[dV]P[Sar][NMeV] / II: T[dV]P[Sar][NMeV]; ester I:1-I:C, II:1-II:C; linker I:N-II:N via Actinocin(9to1))
- IC50 DNA [1]: 8.1 µg/mL (≈ 6.45 µM)
- MST (Median survival time) ([2]; 0.001 mg/kg/day): 11.0 days
- T/C ([2]; 0.001 mg/kg/day): 110%
- MST (Median survival time) ([2]; 0.003 mg/kg/day): 13.5 days
- T/C ([2]; 0.003 mg/kg/day): 135%
- MST (Median survival time) ([2]; 0.01 mg/kg/day): 14.0 days
- T/C ([2]; 0.01 mg/kg/day): 140%
- MST (Median survival time) ([2]; 0.03 mg/kg/day): 15.0 days
- T/C ([2]; 0.03 mg/kg/day): 150%
- MST (Median survival time) ([2]; 0.1 mg/kg/day): 16.0 days
- T/C ([2]; 0.1 mg/kg/day): 160%
- MST (Median survival time) ([2]; 0.3 mg/kg/day): 7.0 days
- T/C ([2]; 0.3 mg/kg/day): 70%
- IC50 [3]: 0.9 µg/mL (≈ 0.717 µM)
- IC50 [4]: 0.002 µg/mL (≈ 0.00159 µM)
- IC50 RNA [5]: 0.17 µg/mL (≈ 0.135 µM)
- Body weight change on day 4 ([6]; 0.001 mg/kg/day): +1.3 g
- Body weight change on day 4 ([6]; 0.01 mg/kg/day): +1.3 g
- Body weight change on day 4 ([6]; 0.03 mg/kg/day): +0.5 g
- Body weight change on day 4 ([6]; 0.1 mg/kg/day): -2.0 g
- Body weight change on day 4 ([6]; 0.3 mg/kg/day): -3.5 g
- MIC [7]: > 100 µg/mL
- MIC [8]: 100 µg/mL (≈ 79.7 µM)
- MIC [9]: 25 µg/mL (≈ 19.9 µM)
- MIC [10]: 0.4 µg/mL (≈ 0.319 µM)
- MIC [11]: > 100 µg/mL
- MIC [12]: 0.4 µg/mL (≈ 0.319 µM)
- MIC [13]: 0.2 µg/mL (≈ 0.159 µM)
- MIC (Proteus vulgalis A9436): > 100 µg/mL
- MIC (Micrococcus luteus 1001): 0.2 µg/mL (≈ 0.159 µM)
- MIC (Mucor spinosus IFO 5317; Mucor spinosus IFO 5317, Sabouraud dextrose agar): > 100 µg/mL
- MIC (Mucor spinosus IFO 5317; in vitro against Mucor spinosus IF05317): > 100 µg/mL
- MIC (Escherichia coli NIHJ): > 100 µg/mL
- MIC [14]: 1.6 µg/mL (≈ 1.27 µM)
- MIC [15]: 0.1 µg/mL (≈ 0.0797 µM)
- MIC [16]: > 100 µg/mL
- MIC [17]: > 100 µg/mL
- MIC [18]: > 100 µg/mL
- MIC [19]: 25 µg/mL (≈ 19.9 µM)
- MIC [20]: 0.2 µg/mL (≈ 0.159 µM)
- MIC [21]: > 100 µg/mL
- MIC (Proteus mirabilis A9554): > 100 µg/mL
- MIC [22]: 0.4 µg/mL (≈ 0.319 µM)
- MIC [23]: 6.3 µg/mL (≈ 5.02 µM)
- IC50 Protein [24]: > 100 µg/mL
- MIC [25]: 6.3 µg/mL (≈ 5.02 µM)
